Experimental data published in patent US10029992B2, “Diaminotriazine compounds and their use as herbicides” (BASF SE, priority 2014, dated 2018).

Legend:
ABUTH [1] = test: Greenhouse experiment, pre-emergence treatment; format: in vivo, Abutilon theophrasti; details: pre-emergence method
Text: (§1) The culture containers used were plastic flowerpots containing loamy sand with approximately 3.0% of humus as the substrate. The seeds of the test plants were sown separately for each species.
(§2) For the pre-emergence treatment, the active ingredients, which had been suspended or emulsified in water, were applied directly after sowing by means of finely distributing nozzles. The containers were irrigated gently to promote germination and growth and subsequently covered with transparent plastic hoods until the plants had rooted. This cover caused uniform germination of the test plants, unless this had been impaired by the active ingredients.
(§3) Depending on the species, the plants were kept at 10-25° C. or 20-35° C., respectively.
(§4) The test period extended over 2 to 4 weeks. During this time, the plants were tended, and their response to the individual treatments was evaluated.
(§5) Evaluation was carried out using a scale from 0 to 100. 100 means no emergence of the plants, or complete destruction of at least the aerial moieties, and 0 means no damage, or normal course of growth. A moderate herbicidal activity is given at values of at least 60, a good herbicidal activity is given at values of at least 70, and a very good herbicidal activity is given at values of at least 85.
(§6) The plants used in the greenhouse experiments were of the following species: […]

ECHCG = test: Greenhouse experiment, pre-emergence treatment; format: in vivo, Echinochloa crus-galli; details: pre-emergence method
Text: as §1, §2, §3, §4, §5, §6

SETFA [2] = test: Greenhouse experiment, pre-emergence treatment; format: in vivo, Setaria faberi; details: pre-emergence method
Text: (§7) The seeds of the test plants were sown separately for each species. For the pre-emergence treatment, the active ingredients, which had been suspended or emulsified in water, were applied directly after sowing by means of finely distributing nozzles. The containers were irrigated gently to promote germination and growth and subsequently covered with transparent plastic hoods until the plants had rooted. This cover caused uniform germination of the test plants, unless this had been impaired by the active ingredients. Depending on the species, the plants were kept at 10-25° C. or 20-35° C., respectively. The test period extended over 2 to 4 weeks. During this time, the plants were tended, and their response to the individual treatments was evaluated. Evaluation was carried out using a scale from 0 to 100. 100 means no emergence of the plants, or complete destruction of at least the aerial moieties, and 0 means no damage, or normal course of growth. A moderate herbicidal activity is given at values of at least 60, a good herbicidal activity is given at values of at least 70, and a very good herbicidal activity is given at values of at least 85. […] [table]

AMARE [3] = test: Greenhouse experiment, pre-emergence treatment; format: in vivo, Amaranthus retroflexus; details: pre-emergence method; for herbicidal activity against AMARA: application rate 125 g/ha
Text: as §7

APESV = test: Greenhouse experiment, pre-emergence treatment; format: in vivo, Apera spica-venti; details: pre-emergence method
Text: as §1, §2, §3, §4, §5, §6

SETFA [4] = test: Greenhouse experiment, post-emergence treatment; format: in vivo, Setaria faberi; details: post-emergence method, application rate 125 g/ha
Experimental: (§8) The seeds of the test plants were sown separately for each species. […] For this purpose, the test plants were either sown directly and grown in the same containers, or they were first grown separately as seedlings and transplanted into the test containers a few days prior to treatment. Depending on the species, the plants were kept at 10-25° C. or 20-35° C., respectively. The test period extended over 2 to 4 weeks. During this time, the plants were tended, and their response to the individual treatments was evaluated. Evaluation was carried out using a scale from 0 to 100. 100 means no emergence of the plants, or complete destruction of at least the aerial moieties, and 0 means no damage, or normal course of growth. A moderate herbicidal activity is given at values of at least 60, a good herbicidal activity is given at values of at least 70, and a very good herbicidal activity is given at values of at least 85. […] [table]

ABUTH [5] = test: Greenhouse experiment, post-emergence treatment; format: in vivo, Abutilon theophrasti; details: post-emergence method, application rate 125 g/ha
Experimental: as §8

AMARE [6] = test: Greenhouse experiment, post-emergence treatment; format: in vivo, Amaranthus retroflexus; details: post-emergence method, application rate 125 g/ha
Experimental: as §8

Compound: Cc1cc(C)cc(Sc2cccc(F)c2Nc2nc(N)nc(C(C)(C)F)n2)c1 [Example 2]
- herbicidal activity against ABUTH (ABUTH [1]; application rate 1000 g/ha): good (a good herbicidal activity is given at values of at least 70)

Compound: Cc1cc(C)cc(Oc2cccc(F)c2Nc2nc(N)nc(C(C)(C)F)n2)c1 [Example 5]
- herbicidal activity against ECHCG (ECHCG; application rate 0.25 kg/ha): very good (a very good herbicidal activity is given at values of at least 85)
- herbicidal activity against ABUTH (ABUTH [1]; application rate 0.25 kg/ha): very good (a very good herbicidal activity is given at values of at least 85)
- herbicidal activity against SETFA (SETFA [2]; application rate 0.25 kg/ha): very good (a very good herbicidal activity is given at values of at least 85)

Compound: Cc1cccc(Oc2cccc(F)c2Nc2nc(N)nc(C(C)(C)F)n2)c1 [Example 7]
- herbicidal activity against AMARE (AMARE [3]; application rate 0.5 kg/ha): good to very good
- herbicidal activity against ECHCG (ECHCG; application rate 0.5 kg/ha): good to very good
- herbicidal activity against ABUTH (ABUTH [1]; application rate 0.5 kg/ha): good to very good

Compound: Cc1cc(C)cc(Oc2cccc(F)c2Nc2nc(N)nc(C(C)F)n2)c1 (stereo not shown) [Example 11]
- herbicidal activity against ECHCG (ECHCG; application rate 0.125 kg/ha): very good (a very good herbicidal activity is given at values of at least 85)
- herbicidal activity against ABUTH (ABUTH [1]; application rate 0.125 kg/ha): very good (a very good herbicidal activity is given at values of at least 85)
- herbicidal activity against SETFA (SETFA [2]; application rate 0.125 kg/ha): very good (a very good herbicidal activity is given at values of at least 85)

Compound: CC(C)(F)c1nc(N)nc(Nc2c(F)cccc2Oc2cc(C(F)(F)F)cc(C(F)(F)F)c2)n1 [Example 12]
- herbicidal activity against AMARE (AMARE [3]; application rate 0.25 kg/ha): very good (a very good herbicidal activity is given at values of at least 85)
- herbicidal activity against SETFA (SETFA [2]; application rate 0.25 kg/ha): very good (a very good herbicidal activity is given at values of at least 85)
- herbicidal activity against APESV (APESV; application rate 0.25 kg/ha): very good (a very good herbicidal activity is given at values of at least 85)

Compound: CC(C)(F)c1nc(N)nc(Nc2c(F)cccc2Oc2cc(Cl)cc(Cl)c2)n1 [Example 13]
- herbicidal activity against AMARE (AMARE [3]; application rate 0.25 kg/ha): very good (a very good herbicidal activity is given at values of at least 85)
- herbicidal activity against SETFA (SETFA [2]; application rate 0.25 kg/ha): very good (a very good herbicidal activity is given at values of at least 85)
- herbicidal activity against APESV (APESV; application rate 0.25 kg/ha): very good (a very good herbicidal activity is given at values of at least 85)

Compound: Cc1cc(C)cc(Oc2cccc(F)c2Nc2nc(N)nc(C3CCCCC3)n2)c1 [Example 15]
- herbicidal activity against ABUTH (ABUTH [1]; application rate 1000 g/ha): very good (a very good herbicidal activity is given at values of at least 85)

Compound: Cc1cc(C)cc(Oc2cccc(F)c2Nc2nc(N)nc(C(C)(C)C)n2)c1 [Example 16]
- herbicidal activity against AMARE (AMARE [3]; application rate 2000 g/ha): very good (a very good herbicidal activity is given at values of at least 85)
- herbicidal activity against ABUTH (ABUTH [1]; application rate 2000 g/ha): very good (a very good herbicidal activity is given at values of at least 85)
- herbicidal activity against APESV (APESV; application rate 2000 g/ha): very good (a very good herbicidal activity is given at values of at least 85)

Compound: CC(C)(F)c1nc(N)nc(Nc2c(F)cccc2Oc2cc(F)cc(F)c2)n1 [Example 24]
- herbicidal activity against ECHCG (ECHCG; application rate 0.25 kg/ha): very good (a very good herbicidal activity is given at values of at least 85)
- herbicidal activity against ABUTH (ABUTH [1]; application rate 0.25 kg/ha): very good (a very good herbicidal activity is given at values of at least 85)
- herbicidal activity against APESV (APESV; application rate 0.25 kg/ha): very good (a very good herbicidal activity is given at values of at least 85)

Compound: Cc1cc(Cl)cc(Oc2cccc(F)c2Nc2nc(N)nc(C(C)(C)F)n2)c1 [Example 28]
- herbicidal activity against ABUTH (ABUTH [1]; application rate 0.25 kg/ha): very good (a very good herbicidal activity is given at values of at least 85)
- herbicidal activity against SETFA (SETFA [2]; application rate 0.25 kg/ha): very good (a very good herbicidal activity is given at values of at least 85)
- herbicidal activity against APESV (APESV; application rate 0.25 kg/ha): very good (a very good herbicidal activity is given at values of at least 85)

Compound: COC(C)c1nc(N)nc(Nc2c(F)cccc2Oc2cc(C)cc(C)c2)n1 (stereo not shown) [Example 39]
- herbicidal activity against ABUTH (ABUTH [1]; application rate 1000 g/ha): very good (a very good herbicidal activity is given at values of at least 85)
- herbicidal activity against APESV (APESV; application rate 1000 g/ha): very good (a very good herbicidal activity is given at values of at least 85)

Compound: CC(C)(F)c1nc(N)nc(Nc2c(F)c(F)cc(Oc3ccccc3)c2F)n1 [Example 42]
- herbicidal activity against AMARE (AMARE [3]; application rate 0.5 kg/ha): good to very good
- herbicidal activity against ECHCG (ECHCG; application rate 0.5 kg/ha): good to very good
- herbicidal activity against ABUTH (ABUTH [1]; application rate 0.5 kg/ha): good to very good

Compound: Cc1cc(C)cc(Oc2cc(F)c(F)c(Nc3nc(N)nc(C(C)(C)F)n3)c2F)c1 [Example 43]
- herbicidal activity against AMARE (AMARE [3]; application rate 0.5 kg/ha): good to very good
- herbicidal activity against ABUTH (ABUTH [1]; application rate 0.5 kg/ha): good to very good
- herbicidal activity against SETFA (SETFA [2]; application rate 0.5 kg/ha): good to very good

Compound: CC(C)(F)c1nc(N)nc(Nc2c(F)cccc2Oc2cc(F)cc(C(F)(F)F)c2)n1 [Example 53]
- herbicidal activity against SETFA (SETFA [4]): very good (a very good herbicidal activity is given at values of at least 85)
- herbicidal activity against ABUTH (ABUTH [5]): very good (a very good herbicidal activity is given at values of at least 85)
- herbicidal activity against AMARE (AMARE [6]): very good (a very good herbicidal activity is given at values of at least 85)

Compound: CC(C)(F)c1nc(N)nc(Nc2c(F)cccc2Oc2cc(F)cc(Cl)c2)n1 [Example 54]
- herbicidal activity against SETFA (SETFA [4]): very good (a very good herbicidal activity is given at values of at least 85)
- herbicidal activity against ABUTH (ABUTH [5]): very good (a very good herbicidal activity is given at values of at least 85)
- herbicidal activity against AMARE (AMARE [6]): very good (a very good herbicidal activity is given at values of at least 85)

Compound: Cc1cc(OCC(F)(F)F)cc(Oc2cccc(F)c2Nc2nc(N)nc(C(C)(C)F)n2)c1 [Example 81]
- herbicidal activity against AMARA (AMARE [3]): very good (a very good herbicidal activity is given at values of at least 85)
- herbicidal activity against ABUTH (ABUTH [1]; application rate 125 g/ha): good (a good herbicidal activity is given at values of at least 70)
- herbicidal activity against SETFA (SETFA [2]; application rate 125 g/ha): very good (a very good herbicidal activity is given at values of at least 85)

Compound: CC(C)(F)c1nc(N)nc(Nc2c(F)cccc2Oc2cc(F)cc(OC(F)F)c2)n1 [Example 82]
- herbicidal activity against AMARA (AMARE [3]): very good (a very good herbicidal activity is given at values of at least 85)
- herbicidal activity against ABUTH (ABUTH [1]; application rate 125 g/ha): very good (a very good herbicidal activity is given at values of at least 85)
- herbicidal activity against SETFA (SETFA [2]; application rate 125 g/ha): very good (a very good herbicidal activity is given at values of at least 85)

Compound: CC(C)c1cccc(Oc2cccc(F)c2Nc2nc(N)nc(C(C)(C)F)n2)c1 [Example 89]
- herbicidal activity against ECHCG (ECHCG; application rate 500 g/ha): very good (a very good herbicidal activity is given at values of at least 85)
- herbicidal activity against ABUTH (ABUTH [1]; application rate 500 g/ha): very good (a very good herbicidal activity is given at values of at least 85)
- herbicidal activity against APESV (APESV; application rate 500 g/ha): very good (a very good herbicidal activity is given at values of at least 85)

Compound: Cc1cc(C)cc(Oc2cccc(F)c2Nc2nc(N)nc(C3(F)CCCC3)n2)c1 [Example 96]
- herbicidal activity against ECHCG (ECHCG; application rate 500 g/ha): very good (a very good herbicidal activity is given at values of at least 85)
- herbicidal activity against ABUTH (ABUTH [1]; application rate 500 g/ha): very good (a very good herbicidal activity is given at values of at least 85)
- herbicidal activity against SETFA (SETFA [2]; application rate 500 g/ha): very good (a very good herbicidal activity is given at values of at least 85)

Compound: CC(C)(F)c1nc(N)nc(Nc2c(F)cccc2Oc2cccc(OC(F)(F)F)c2)n1 [Example 97]
- herbicidal activity against ECHCG (ECHCG; application rate 500 g/ha): very good (a very good herbicidal activity is given at values of at least 85)
- herbicidal activity against ABUTH (ABUTH [1]; application rate 500 g/ha): very good (a very good herbicidal activity is given at values of at least 85)
- herbicidal activity against SETFA (SETFA [2]; application rate 500 g/ha): very good (a very good herbicidal activity is given at values of at least 85)

Compound: Cc1cc(C)cc(Oc2cccc(C#N)c2Nc2nc(N)nc(C(C)(C)F)n2)c1 [Example 100]
- herbicidal activity against ECHCG (ECHCG; application rate 250 g/ha): very good (a very good herbicidal activity is given at values of at least 85)
- herbicidal activity against ABUTH (ABUTH [1]; application rate 250 g/ha): good (a good herbicidal activity is given at values of at least 70)
- herbicidal activity against APESV (APESV; application rate 250 g/ha): very good (a very good herbicidal activity is given at values of at least 85)
